Structures can show the parent of a compound that is named as a salt. Where two headings read alike, the source gives them in different places.
Legend:
5-HT1BR = 5-HT1BR (Homo sapiens (Human), UniProt P28222); test: 5-HT1BR cAMP secondary messenger agonist assay (HitHunter, CHO-K1); assay type: cell-based
Text: The 5-HT1BR cAMP secondary messenger agonist assay used a panel of CHO-K1 cell lines stably expressing non-tagged GPCRs that endogenously signal through cAMP. Hit Hunter® cAMP assays monitored the activation of a GPCR via Gi and Gs secondary messenger signaling in a homogenous, non-imaging assay format using DiscoverX Enzyme Fragment Complementation (EFC) with β-galactosidase as the functional endpoint.
The enzyme was split into two complementary portions: Enzyme Acceptor (EA) and Enzyme Donor (ED). Exogenously introduced ED fused to cAMP (ED-cAMP) competed with endogenously generated cAMP for binding to an anti-cAMP-specific antibody. Active β-galactosidase was formed by complementation of exogenous EA to any unbound ED-cAMP.
Cell lines were expanded from freezer stocks according to standard procedures. Cells were seeded in a total volume of 20 μL into white walled, 384-well microplates and incubated at 37° C. for the appropriate time prior to testing. cAMP modulation was determined using the DiscoverX HitHunter cAMP XS+ assay.
For agonist determination, cells were incubated with sample (in the presence of EC80 forskolin to induce response if measuring Gi secondary messenger signaling). Media was aspirated from cells and replaced with 15 μL 2:1 HBSS/10 mM Hepes:cAMP XS+ Ab reagent. Intermediate dilution of sample stocks was performed to generate 4×sample in assay buffer (optionally containing 4×EC80 forskolin). 5 μL of 4×sample was added to cells and incubated at 37° C. or room temperature for 30 or 60 minutes, as appropriate. Final assay vehicle concentration was 1%.

[1] = molecular target: human 5-HT transporter (hSERT) (Homo sapiens (Human), UniProt P31645); test: Human serotonin transporter  assay ([3H]imipramine radioligand, CHO cells); assay type: binding; conditions: for IC50: 2 nM [3H]imipramine; for Ki: Cheng Prusoff equation
Procedure: Benzofuran derivatives were evaluated for inhibiting the human 5-HT transporter (hSERT) as expressed in CHO cells using an antagonist radioligand assay (Tatsumi, M. et al. (1999), Eur. J Pharmacol., 368: 277-283). […] Test compounds were assayed in three trials at […], and 0.94868 μM.

healthy human individual = test: Human effects of non-racemic 5-MAPB, self-reported ratings (Good, Bad, Open); assay type: in vivo; conditions: averaged from all sessions, 54 mg 5-MAPB HCl oral in two halves
Procedure: The effects of non-racemic 5-MAPB HCl were tested by a healthy human individual at four different ratios of enantiomers plus the racemate as a control: • 54 mg S and 0 mg R (100% S) • 47 mg Sand 7 mg R (87% S) • 36 mg S and 18 mg R (67% S) • 27 mg S and 27 mg R (50% S) • 7 mg S and 47 mg R (13% S)
Two trials were carried out at each ratio, except for 13% S where only one was conducted. Trials were at least 72 h apart.
5-MAPB HCl was dissolved in 1.5 ml distilled water and consumed in two halves, separated by 1 hour. Starting at 3 hours after administration, tablets of 250 mg ascorbic acid and capsules of 300 mg alpha lipoic acid were taken ad libitum (approximately every hour for a total of 4 administrations).
Measurements were made approximately every 2 hours until post 6 hours and the maximum ratings per session were analyzed. Additionally, an index of good drug effects versus emotional openness, calculated as (Open−Good)/(200, the theoretical maximum of Open+Good), was constructed at each time point and the maximum analyzed. In healthy volunteers, Good Ratings can be considered a predictor of abuse liability. Accordingly, this index can be used as an indicator of the balance of a therapeutic effect (emotional openness) vs abuse liability.
Historic data of two trials 50 mg RS-5-MAPB Cl from the same individual were also included in the analysis for comparison.

SERT = SERT (Homo sapiens (Human), UniProt P31645); test: hSERT release assay in CHO cells ([3H]serotonin); conditions: EC50 SERT (Mean ± SEM, nM), CHO cells expressing hSERT
DAT = DAT (Homo sapiens (Human), UniProt Q01959); test: hDAT release assay in CHO cells ([3H]dopamine); conditions: EC50 DAT (Mean ± SEM, nM), CHO cells expressing hDAT
[2] = Salt screening experiments (PXRD result); assay type: physicochemical; conditions: S-5-MAPB Pure Enantiomer (Pattern 1A Enantiomer) + counterion 1:1 molar ratio, 40° C.
[3] = molecular target: T1, serotonin (5-HT) transporter (SERT) (Rattus norvegicus (Rat), UniProt P31652); test: Rat synaptosome SERT [3H]5-HT uptake inhibition assay; conditions: 5 nM [3H]5-HT
[4] = molecular target: T1, serotonin (5-HT) transporter (SERT); test: Rat synaptosome SERT [3H]5-HT release assay; conditions: 5 nM [3H]5-HT
MAO-A = MAO-A (Homo sapiens (Human), UniProt P21397); test: MAO-A inhibition assay (kynuramine); assay type: biochemical
Procedure: MAO-A and test compounds were preincubated at 37° C. for 15 minutes before substrate addition. Test compounds were assayed at 10 concentrations with the highest concentration either 30 or 10 μM and subsequent concentrations using a 0.33 dilution factor. The reaction was initiated by addition of kynuramine and incubated at 37° C. for 30 minutes. The reaction was terminated by addition of NaOH. The amount of 4-hydroquioline formed was determined through spectrofluorimetric readout with the emission detection at 380 nm and excitation wavelength 310 nm.

[5] = Inhibition of [3H]5-HT Uptake at SERT IC50 (nM)
[6] = [3H]5-HT release via SERT EC50 (nM)
[7] = read-out: Inhibition of [3H]5-HT Uptake at SERT IC50
[8] = read-out: [3H]5-HT release via SERT EC50

Sequence of MAO-A (P21397 whole entry, looked up, species assumed): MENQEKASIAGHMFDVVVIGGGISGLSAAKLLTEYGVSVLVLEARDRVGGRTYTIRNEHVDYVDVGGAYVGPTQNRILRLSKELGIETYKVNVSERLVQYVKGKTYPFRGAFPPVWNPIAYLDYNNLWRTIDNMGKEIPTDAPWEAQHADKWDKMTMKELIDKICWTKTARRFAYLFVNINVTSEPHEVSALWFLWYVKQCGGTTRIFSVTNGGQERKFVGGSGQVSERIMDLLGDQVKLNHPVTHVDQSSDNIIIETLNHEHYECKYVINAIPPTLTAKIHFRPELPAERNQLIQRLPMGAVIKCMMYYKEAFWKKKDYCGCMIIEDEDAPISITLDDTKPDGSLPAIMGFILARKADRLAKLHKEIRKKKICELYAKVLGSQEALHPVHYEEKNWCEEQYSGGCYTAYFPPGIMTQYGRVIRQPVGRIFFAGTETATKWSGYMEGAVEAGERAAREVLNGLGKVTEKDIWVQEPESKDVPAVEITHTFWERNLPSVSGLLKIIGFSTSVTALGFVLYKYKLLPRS

CCC(NC)C(=O)c1ccc2ccoc2c1 (single isomer, unassigned; (-)) [(−)-BK-6-MBPB, 1-(benzofuran-6-yl)-2-(methylamino)butan-1-one]
Hill Coef. (5-HT1BR): 1.9551 | EC50 (5-HT1BR; 5-HT1BR EC50 (μM)): 7.52 µM | IC50 ([1]; SERT IC50 (μM)): 3.7 µM | Ki ([1]; SERT Ki (μM)): 1.7 µM

CN[C@@H](C)Cc1ccc2occc2c1 [100% S-5-MAPB]
Bad (healthy human individual; maximum 0-100 rating of bad drug effects): 1% | Open (healthy human individual; maximum 0-100 rating of emotional openness): 65% | Good (healthy human individual; maximum 0-100 rating of good drug effects): 55%

CCC(NC)C(=O)c1ccc2ccoc2c1 (single isomer, unassigned; (+)) [(+)-BK-6-MBPB, 1-(benzofuran-6-yl)-2-(methylamino)butan-1-one]
EC50 (5-HT1BR; 5-HT1BR EC50 (μM)): > 30 µM | IC50 ([1]; SERT IC50 (μM)): 29 µM | Ki ([1]; SERT Ki (μM)): 13 µM

CN[C@H](C)Cc1ccc2occc2c1 [75% R-5-MAPB]
EC50 (SERT): 122 ± 13 nM | EC50 (DAT): 794 ± 182 nM

CCC(NC)C(=O)c1ccc2ccoc2c1 (racemic) [rac-BK-6-MBPB, 1-(benzofuran-6-yl)-2-(methylamino)butan-1-one hydrochloride]
EC50 (5-HT1BR; 5-HT1BR EC50 (μM)): > 30 µM

CCC(NC)C(=O)c1ccc2occc2c1 (single isomer, unassigned; (-)) [(−)-BK-5-MBPB, 1-(benzofuran-5-yl)-2-(methylamino) butan-1-one]
Hill Coef. (5-HT1BR): 1.6241 | EC50 (5-HT1BR; 5-HT1BR EC50 (μM)): 6.61 µM | IC50 ([1]; SERT IC50 (μM)): 1.6 µM | Ki ([1]; SERT Ki (μM)): 0.72 µM

Fumaric
PXRD Result ([2]; solvent Acetone): N/A (gel) | PXRD Result ([2]; solvent MeOH:water 90:10): N/A (gel) | PXRD Result ([2]; solvent THF): N/A (gel)

NCCCC[C@H](N)C(=O)O [L-Lysine]
PXRD Result ([2]; solvent Acetone): N/A (gel) | PXRD Result ([2]; solvent EtOH:water 90:10): N/A (gel) | PXRD Result ([2]; solvent MeOH:water 90:10): N/A (gel) | PXRD Result ([2]; solvent THF): L-Lysine

CCC(NC)C(=O)c1ccc2occc2c1 (racemic) [rac-BK-5-MBPB, 1-(benzofuran-5-yl)-2-(methylamino)butan-1-one hydrochloride]
Hill Coef. (5-HT1BR): 1.01 | EC50 (5-HT1BR; 5-HT1BR EC50 (μM)): 19.6 µM

CNC(C)C(=O)c1ccc2ccoc2c1 (racemic) [rac-BK-6-MAPB, 1-(benzofuran-6-yl)-2-(methylamino)propan-1-one hydrochloride]
Hill Coef. (5-HT1BR): 0.99 | EC50 (5-HT1BR; 5-HT1BR EC50 (μM)): 0.537 µM

O=C(O)CCC(=O)O [Succinic]
PXRD Result ([2]; solvent Acetone): N/A (gel) | PXRD Result ([2]; solvent EtOH:water 90:10): N/A (gel) | PXRD Result ([2]; solvent MeOH:water 90:10): N/A (gel) | PXRD Result ([2]; solvent THF): N/A (gel)

O=C(O)/C=C\C(=O)O [Maleic]
PXRD Result ([2]; solvent Acetone): N/A (gel) | PXRD Result ([2]; solvent EtOH:water 90:10): N/A (gel) | PXRD Result ([2]; solvent MeOH:water 90:10): N/A (gel) | PXRD Result ([2]; solvent THF): N/A (gel)

O=S(=O)(O)O [Compound H2SO4]
PXRD Result ([2]; solvent Acetone): N/A (gel) | PXRD Result ([2]; solvent EtOH:water 90:10): N/A (gel) | PXRD Result ([2]; solvent MeOH:water 90:10): N/A (gel) | PXRD Result ([2]; solvent THF): N/A (gel)

CCC(NC)C(=O)c1ccc2occc2c1 (single isomer, unassigned; (+)) [(+)-BK-5-MBPB, 1-(benzofuran-5-yl)-2-(methylamino) butan-1-one]
EC50 (5-HT1BR; 5-HT1BR EC50 (μM)): > 30 µM | IC50 ([1]; SERT IC50 (μM)): 6.5 µM | Ki ([1]; SERT Ki (μM)): 3 µM

CNC(C)C(=O)c1ccc2occc2c1 (single isomer, unassigned) [Enantiomer 2 BK-5-MAPB, 1-(benzofuran-5-yl)-2-(methylamino) propan-1-one]
EC50 (5-HT1BR; 5HT1B Agonist (μM)): 3.07 µM

CNC(C)C(=O)c1ccc2occc2c1 (single isomer, unassigned; (+)) [(+)-BK-5-MAPB, 1-(benzofuran-5-yl)-2-(methylamino) propan-1-one]
IC50 [3, 5]: 2090 ± 151 nM | EC50 [4, 6]: 439 ± 72.5 nM | Hill Coef. (5-HT1BR): 1.05 | EC50 (5-HT1BR; 5-HT1BR EC50 (μM)): 3.07 µM | IC50 ([1]; SERT IC50 (μM)): 38 µM | Ki ([1]; SERT Ki (μM)): 17 µM

1-(benzofuran-6-yl)-N-methylbutan-2-amine [Compound R-6-MBPB]
IC50 [3, 7]: 702 ± 262 nM | EC50 [4, 8]: 172 ± 82.2 nM | IC50 ([1]; read-out: SERT IC50): 5.7 µM | Ki ([1]; read-out: SERT Ki): 2.6 µM

CS(=O)(=O)O [Methane Sulfonic]
PXRD Result ([2]; solvent Acetone): N/A (gel) | PXRD Result ([2]; solvent EtOH:water 90:10): N/A (gel) | PXRD Result ([2]; solvent MeOH:water 90:10): N/A (gel) | PXRD Result ([2]; solvent THF): N/A (gel)

CNC(C)C(=O)c1ccc2ccoc2c1 (single isomer, unassigned; (-)) [(−)-BK-6-MAPB, 1-(benzofuran-6-yl)-2-(methylamino) propan-1-one]
IC50 [3, 5]: 275 ± 13 nM | EC50 [4, 6]: 72.2 ± 16.6 nM | Hill Coef. (5-HT1BR): 0.8339 | EC50 (5-HT1BR; 5-HT1BR EC50 (μM)): 0.288 µM | IC50 ([1]; SERT IC50 (μM)): 12 µM | Ki ([1]; SERT Ki (μM)): 5.4 µM

CNC(C)C(=O)c1ccc2ccoc2c1 (single isomer, unassigned; (+)) [(+)-BK-6-MAPB, 1-(benzofuran-6-yl)-2-(methylamino) propan-1-one]
IC50 [3, 5]: 5470 ± 424 nM | EC50 [4, 6]: 1280 ± 268 nM | EC50 (5-HT1BR; 5-HT1BR EC50 (μM)): > 10 µM

N=C(N)NCCC[C@H](N)C(=O)O [L-Arginine]
PXRD Result ([2]; solvent Acetone): N/A (gel) | PXRD Result ([2]; solvent EtOH:water 90:10): N/A (gel) | PXRD Result ([2]; solvent MeOH:water 90:10): N/A (gel) | PXRD Result ([2]; solvent THF): N/A (gel)

O=P(O)(O)O [Compound H3PO4]
PXRD Result ([2]; solvent MeOH:water 90:10): N/A (gel)

CN[C@@H](C)Cc1ccc2ccoc2c1 [Compound S-6-MAPB, (S)-1-(benzofuran-6-yl)-N-methylpropan-2-amine]
IC50 [3, 5]: 90.9 ± 5.9 nM | EC50 [4, 6]: 20.6 ± 2.7 nM | Hill Coef. (5-HT1BR): 1.21 | EC50 (5-HT1BR; 5-HT1BR EC50 (μM)): 0.102 µM | EC50 (5-HT1BR; 5HT1B Agonist (μM)): 0.1 µM | IC50 (MAO-A): 5390 nM | IC50 ([1]; SERT IC50 (μM)): 6.7 µM

CNC(C)C(=O)c1ccc2occc2c1 (single isomer, unassigned) [Enantiomer 1 BK-5-MAPB, 1-(benzofuran-5-yl)-2-(methylamino) propan-1-one]
EC50 (5-HT1BR; 5HT1B Agonist (μM)): 0.08 µM

CNC(C)C(=O)c1ccc2occc2c1 (single isomer, unassigned; (-)) [(−)-BK-5-MAPB, 1-(benzofuran-5-yl)-2-(methylamino) propan-1-one]
IC50 [3, 5]: 284 ± 11.9 nM | EC50 [4, 6]: 80 ± 13.7 nM | Hill Coef. (5-HT1BR): 1.5 | EC50 (5-HT1BR; 5-HT1BR EC50 (μM)): 0.0777 µM | IC50 ([1]; SERT IC50 (μM)): 6.9 µM | Ki ([1]; SERT Ki (μM)): 3.2 µM

1-(benzofuran-6-yl)-N-methylbutan-2-amine [Compound S-6-MBPB]
IC50 [3, 7]: 217 ± 45.8 nM | EC50 [4, 8]: 54.1 ± 33.9 nM | IC50 ([1]; read-out: SERT IC50): 2.7 µM | Ki ([1]; read-out: SERT Ki): 1.2 µM

O=[N+]([O-])O [HNO3]
PXRD Result ([2]; solvent Acetone): N/A (gel) | PXRD Result ([2]; solvent EtOH:water 90:10): N/A (gel) | PXRD Result ([2]; solvent MeOH:water 90:10): N/A (gel) | PXRD Result ([2]; solvent THF): N/A (gel)

CNC(C)C(=O)c1ccc2occc2c1 (racemic) [rac-BK-5-MAPB, 1-(benzofuran-5-yl)-2-(methylamino)propan-1-one hydrochloride]
Hill Coef. (5-HT1BR): 0.91 | EC50 (5-HT1BR; 5-HT1BR EC50 (μM)): 0.14 µM

Reference: patent US11767305B2, “Advantageous benzofuran compositions for mental disorders or enhancement” (Tactogen Inc, priority 2020, dated 2023)
